Assay results taken from patent US12681006B2, “Methods of generating human endometrial stromal fibroblasts and three-dimensional multi-layered human endometrial tissue compositions” (Northwestern University, priority 2021, dated 2026).
“And” between values parts separate entries of the source, which are not always exact repeats. Identical values can stand only once.

What was measured:
Assay type in all cases: cell-based, human
[1] = system: pluripotent stem cells (PSC); test: Differentiation of PSC to intermediate mesoderm with CHIR99021, marker expression by qPCR/ICC
Description: Generation of ESF from pluripotent stem cells (PSC) involves sequential differentiation of the cells through a series of intermediate progenitor cells species (FIG. 6). The first step (FIG. 1a) requires the specification of intermediate mesoderm (IM), a common mesodermal progenitor for both nephric and reproductive tracts (Yucer et al., 2017). […] We observed high levels of mesodermal-specific Brachyury (TBXT) gene expression, and concurrent reduction of pluripotency markers OCT3/4 and SOX2 in 2 days (FIG. 1b, d). LHX1 and PAX2, two transcription factors expressed in the intermediate mesoderm (IM), also were detected at this time (FIG. 1c, d). […] At day 4 of differentiation, TBXT expression was decreased, LHX1 and PAX2 expression was either maintained or increased, and expression of anti-Müllerian hormone receptor 2 (AMHR2), a specific marker of Müllerian duct mesenchyme, increased (FIG. 1b, c, e).
(§1) Monolayer Cell Culture and Differentiation: Both embryonic (H7) and iPS (reprogrammed from Coriell fibroblast GM03651 by Sendai virus (ThermoFisher #A16517) following manufacturer's instruction) cells lines of female origin (XX) were used for differentiation as well as co-culture. Cells were cultured in mTeSR1 media (STEMCELL Technologies #85875) and on Corning Matrigel hESC-Qualified Matrix (Corning™ #354277) coated tissue culture plastic plates. Lot specific dilution factor volume provided by the manufacturer is diluted into 24 mL of cold DMEM/F12 (ThermoFisher Scientific #11320-082). To coat: 1 mL of this solution is applied to 1 well of a 6 well plate (9.6 cm^2) and incubated at RT for 1 hr or 37 C for 30 min. To differentiate, PSC were dissociated to single-cell level using Accutase (EMD Millipore #SCR005). Once at single cell level, equal volume mTeSR1 was added to stop dissociation and cells were pelleted at 0.2e3 rcf for 5 min. Supernatant was discarded and the remaining pellet of PSC was resuspended in mTeSR1 and 10 μM Y27632 (Reprocell #04-0012-02) and plated onto Corning Matrigel hESC-Qualified Matrix coated tissue culture plates at 3×10^5 per 3.8 cm^2 or equivalent density. Media is replaced with Differentiation Basal Media (Advanced RPMI 1640 (Gibco #12633020), 1× Gluatmax (Gibco #35050061) and […] CHIR99021 (STEMCELL Technologies #72054). After 4 days, the media is changed to Differentiation Basal Media containing 100 ng/mL recombinant Human WNT7A (R&D Systems #3008-WN-025). The final differentiation treatment media was Differentiation Basal Media with 10 ng/mL Recombinant Human BMP2 (R&D Systems #355-BM010), and 10 nM β-estradiol (E2, Millipore Sigma #E2758-250MG). While it varies by cell line, the expected yield at day 12 off differentiation when starting with 3×10^5 stem cells is 0.6×10^6-13.2×10^6 PSC-ESF.
(§2) qRT-PCR: RNA Isolation was performed using the RNAqueous-Micro Total RNA Isolation Kit (ThermoFisher Scientific #AM1931) following manufacturer's instructions. DNAse treatment and reverse transcription were performed using SuperScript IV VILO Master Mix with ezDNase Enzyme (ThermoFisher Scientific #11766050) following manufacturer's instructions. Quantitative PCR was performed using SYBR Green PCR Master Mix (ThermoFisher Scientific #4312704) using the QuantStudio 7. ESC and iPSC differentiated cells were used for analysis. A list of primers can be found in Table 1.
Immunocytochemistry: Monolayer cultures: cells cultured on Matrigel coated coverslips were washed with 1×DPBS (Corning #21031CV) before fixing the cells using 4% Formaldehyde solution (Millipore Sigma #P6148) for 20 min at room temperature. After 20 min, cells are washed 3 times with 1×DPBS. Prior to staining, cells were blocked for 1 hr at RT in PBS (Fisher Scientific #AM9625), 0.1% BSA (Millipore Sigma #A7906), 0.25% Triton-X (Millipore Sigma #T8787), and 10% Normal Goat Serum (Jackson Immuno Research #005-000-121). Primary Antibodies were diluted into the same buffer for incubation at 4° C. overnight. […]

Hedgehog signaling = test: Inhibition of Hedgehog signaling in PSC-ESF/EEO co-cultures with cyclopamine, qPCR
Description: FIG. 12a-FIG. 12d. […] Related to FIG. 5 a. Schematic of treatment paradigm for inhibition of Hedgehog signaling. Co-cultures were cultured in vehicle treatment media with either 10 uM cyclopamine (+) or vehicle (EtOH, −). After 48 h co-cultures were harvested for RNA and qPCR analysis. b. Gene expression of direct downstream mediators of IHH signaling: GLI1 and GLI2. […] (d12 v.−ns p-value=0.0953; −v.+ns p-value−v.+p-value=0.2661). c. […] (Lachman, A., 2010; ENCODE Project Consortium, 2011) d. Top 10 pathways enriched in decidualized co-cultured PSC-ESF over decidualized monolayer ESF as analyzed by the integrated Bioplanet 2019 platform. Both enrichment analyses done using Enrichr with a 2-fold cutoff ((http://amp.pharm.mssm.edu/Enrichr/).
BMP2, a member of the TGF B family, is necessary for decidualization (FIG. 5d). BMP2 in ESF can be activated by hormone treatments, such as P4 and cAMP, which directly increase BMP2 expression to mediate decidualization in hESF (Lee et al., 2007). In the mouse, stromal BMP2 is further amplified indirectly by P4 activated IHH from the luminal epithelium (Lee et al., 2007). Increased stromal BMP2 subsequently mediates decidualization by activating WNT (WNT4) signaling, FK506-binding proteins (FKBP5), and prostaglandin (PTGS1) (Li et al., 2013). To examine the hormone mediated activation of IHH signaling in co-cultured PSC-ESF, we analyzed expression of IHH and BMP signaling targets after decidualization. […] HOXA10, a mediator of stromal hormone response, was not increased by co-culture. However, it trended towards an increase after hormone treatment, though without statistical significance (FIG. 5e). Importantly, we observed that BMP2 and BMP2 signaling targets (WNT4, FKBP5, and PTGS1) also were increased in expression in response to co-culture, while BMP2, FKBP5, and PTGS1 were further increased by hormone treatment (FIG. 5e).
as §2

[2] = system: PSC derived cells, day 4 of differentiation; test: WNT7A treatment day 4-8 to expand Müllerian duct mesenchyme (PSC-ESP), marker expression by qPCR/ICC
Description: To preferentially expand the Müllerian duct mesenchyme population, at day 4 we continued activating the WNT/B-catenin pathway with WNT7A (100 ng/ml) treatment from day 4-8. […] The Müllerian duct is patterned along the anterior-posterior axis to develop into the fallopian tubes (HOXA9), endometrium (HOXA10 and HOXA11), cervix (HOXA11), and vagina (HOXA13) (Du and Taylor, 2015). […] Immunocytochemical (ICC) analyses validated the qPCR results with increasing nuclear expression of the HOXA11 transcription factor from day 0 to day 8 (FIG. 1g). The expression of mesenchymal lineage markers platelet derived growth factor beta (PDGFRβ) and vimentin (VIM) supported specification to the stromal cell type (FIG. 1h). HOXA11 was confirmed to be co-expressed with mesenchymal markers AMHR2 and VIM (FIG. 1h, i). […] Further, 93.31+1.46% of the cells were Ki67^+, confirming that the cells at day 8 are in cell cycle (FIG. 1i, j). PSC-ESP at day 8 of differentiation could be frozen and thawed for subsequent differentiation, generating cells with appropriate proliferative properties and lineage-specific marker expression (FIG. 7f, g). In toto, these findings indicate that developmentally and regionally appropriate endometrial stromal progenitors, which we termed PSC-ESP, were generated at this point of the differentiation protocol.
as §1
as §2, with “1. […]” for “1.”

[3] = 10 uM cyclopamine, 48 h, vs vehicle (EtOH)
[4] = day 8, after CHIR99021 day 0-4 and WNT7A day 4-8, ICC

## Cc1c[nH]c(-c2cnc(NCCNc3ccc(C#N)cn3)nc2-c2ccc(Cl)cc2Cl)n1 [CHIR99021]
[1]; 8 μM CHIR99021, day 2
  LHX1 and PAX2 (intermediate mesoderm transcription factors) expression: detected
[1]; 8 μM CHIR99021, day 2 vs day 0, qPCR
  mesodermal-specific Brachyury (TBXT) gene expression: high levels
[1]; 8 μM CHIR99021, day 4 of differentiation
  expression of AMHR2, marker of Müllerian duct mesenchyme: increased
[1]; 8 μM CHIR99021, in 2 days, qPCR/ICC
  pluripotency markers OCT3/4 and SOX2: reduction
[1]; 8 μM CHIR99021, qPCR
  expression of endoderm and mesendoderm marker SOX17: low but significant increase
[1]; CHIR99021 treatment of PSC
  cell expansion of treated PSC: rapid expansion of cells
[1]; day 4, ESC, both concentrations of CHIR99021
  LHX1 and PAX2 induction, comparison of concentrations of CHIR99021: highly, but differently induced

## CC1=C2C[C@H]3[C@@H](CC=C4C[C@@H](O)CC[C@@]43C)[C@@H]2CC[C@]12O[C@@H]1C[C@H](C)CN[C@H]1[C@H]2C [cyclopamine]
Hedgehog signaling; [3]
  GLI1 gene expression: significantly downregulated
  GLI2 gene expression: similarly regulated without statistical significance
Hedgehog signaling; cyclopamine 48 hr, co-culture
  BMP2 expression: trended towards a reduction
  HOXA10 expression: significant reduction
  NR2F2 expression: significant reduction

B1: WNT7A: recombinant Human WNT7A (R&D Systems), used as second Wnt/β-catenin agonist (protein, UniProt O00755 32-349, looked up)
Protein Wnt-7a: LGASIICNKIPGLAPRQRAICQSRPDAIIVIGEGSQMGLDECQFQFRNGRWNCSALGERTVFGKELKVGSREAAFTYAIIAAGVAHAITAACTQGNLSDCGCDKEKQGQYHRDEGWKWGGCSADIRYGIGFAKVFVDAREIKQNARTLMNLHNNEAGRKILEENMKLECKCHGVSGSCTTKTCWTTLPQFRELGYVLKDKYNEAVHVEPVRASRNKRPTFLKIKKPLSYRKPMDTDLVYIEKSPNYCEEDPVTGSVGTQGRACNKTAPQASGCDLMCCGRGYNTHQYARVWQCNCKFHWCCYVKCNTCSERTEMYTCK
[2]; 100 ng/mL WNT7A day 4 to day 8, only in the 8 uM CHIR99021 condition
  expression of endometrium specific genes HOXA10 and HOXA11: only induced high expression
[2]; 100 ng/ml WNT7A, day 4-8, qPCR
  Müllerian mesenchyme specific AMHR2 expression: further induced
  epithelium specific marker WNT7A expression: did not induce
[2]; 100 ng/ml WNT7A, day 8 of differentiation, qPCR
  HOXA10 and HOXA11 expression: significantly upregulated
[2]; WNT7A day 4 through 8, d4 vs d8, qPCR
  HOXA9 (fallopian tube) and HOXA13 (vagina) expression: not significantly upregulated
[2]; [4]
  DAPI+ cells expressing both AMHR2 and HOXA11: 78.55+8.17% and 78.5%
  DAPI+ cells positive for HOXA11: 92.27+5.15% and 92.3%
  cells Ki67+: 93.31+1.46% and 93.3%
